Reference: patent US9707244B2, “Compositions and methods for treating conditions that affect epidermis” (Gencia Corporation, priority 2013, dated 2017)

system: EpiDerm Full Thickness 400 (EFT-400) tissues; test: Mattek full-thickness skin model (EFT-400) skin thickness; type: cell-based; conditions: 14 days; average over the three corticosteroids (100 nM dexamethasone, 50 nM betamethasone, 10 nM Clobetasol); p<0.001
Procedure: Following the protocol of Schoepe, we used the FTSM model to determine if co-treatment with Mitocreatine would reduce the loss in skin thickness produced by glucocorticoids.
2.5 mL of EpiDerm Full Thickness 400 (EFT-400) medium was dispensed into each well of the four 6-well plates aseptically in the tissue culture hood. The plates containing the EFT-400 tissues were removed from their plastic packaging and transferred using sterile forceps into the 6-well plates containing the 2.5 mL of EFT-400 media, making sure that no agarose adheres to the insert and that the media makes full contact with the underside of the tissue insert membrane (no air bubbles under the insert). The apical surface of the tissue should remain exposed to air (no media should be added to the side of the insert).
The tissues were equilibrated overnight at 37° C., 5% CO2. Treatment conditions are listed below in Table 5.
Day 2-13: The plates were visually examined and the media containing the test compounds was replenished each day.
Day 15: The inserts were dislodged from the support and the tissue carefully removed from the support with a scalpel.
The tissues were placed in 50 mL conical tubes containing 10% phosphate buffered formalin and sent for sectioning, histological processing and H&E staining Slides were visualized using a Leica Stereoscope equipped with a digital camera. Images were acquired and measured using ExoLabs software. Data was tabulated in Excel and the results were analyzed.

reduction in skin thickness (FTSM) [%]	SMILES
26	C[C@H]1C[C@H]2[C@@H]3CCC4=CC(=O)C=C[C@]4(C)[C@@]3(F)[C@@H](O)C[C@]2(C)[C@@]1(O)C(=O)CO [betamethasone]
26	C[C@@H]1C[C@H]2[C@@H]3CCC4=CC(=O)C=C[C@]4(C)[C@@]3(F)[C@@H](O)C[C@]2(C)[C@@]1(O)C(=O)CO [dexamethasone]

SMILES	reduction in skin thickness (FTSM) [%]
C[C@H]1C[C@H]2[C@@H]3CCC4=CC(=O)C=C[C@]4(C)[C@@]3(F)[C@@H](O)C[C@]2(C)[C@@]1(O)C(=O)CCl [Clobetasol]	26
